Source: patent US7262171B1, “Use of rhamnolipids in wound healing, treating burn shock, atherosclerosis, organ transplants, depression, schizophrenia and cosmetics” (Paradigm Biomedical, Inc., priority 1998, dated 2007)
Counter-ions that a name gives are not always drawn.

Experiments:
mice = settings: cited from earlier work; for PCP-induced enhancement of immobility in the forced swimming test: doses that failed to produce antidepressant effects in control animals
burn wounds [1] = assay: Topical treatment of burn wounds, 7% of body surface; settings: for mean value of collagen tissue: sacrificed on 45th day, histopathology; for mean value of collagen concentration relative to group 1 D (placebo): placebo taken as 1100% (printed)
WKY rats [2] = settings: cited from earlier work
WKY rats [3] = settings: cited from earlier work; remark: listed apart in the source
venous ulcer = assay: Open wound healing in a patient with incurable venous ulcer; type: in vivo, human; settings: 1% BAC-3 ointment, twice daily during 41 days
Description: The BAC-3 rhamnolipid was tested in the case of open wound healing, in a patient suffering around ten years from incurable venous ulcer. On the left leg, the patient had very thick layers of collagen with fibrotic lesions. […] Moreover, after treatment was finished, not only the collagen, but also the fibrotic lesions had disappeared as well. One year after the treatment, the treated skin lesions on the left leg appear normal, and all skin collagen and fibrotic layers had disappeared.

burn wounds [4] = assay: Topical treatment of burn wounds, 15% of body surface; type: in vivo, Sprague-Dawley rats; settings: 1% BAC-3 in ointment without chlorhexidine, started on 50th day after burning on open wounds; tapering regimen
Description: Method of burning. […] (Producer: Veterinary Laboratory Inc. Lenexa, Kans.).
Four rats were burned according to the described procedure using the wider opening in the Walker device (10×5 cm). All rats were treated from the beginning by placebo. After 50 days all burned rats had open wounds in average 2.3 cm at the neck, 1.3 cm in the middle and 1.8 cm at the tail.
On the 50th day after burning, animals were treated with 1% BAC-3 in ointment without chlorhexidine hydrochloride using the following procedure:
For the first 3 days, burn wounds were treated twice daily. After developing granulation tissue and the first sign of epithelization, animals were treated 3 days with 1% BAC-3 in ointment once daily. For the next four days, animals were treated every second day. After that wounds were treated every third day with 1% BAC-3 in ointment until the entire wound was re-epithelized. Re-epithelization was first completed at the middle of the wounds, then at the tails and finally at the necks. Whole epithelization in all animals was finished in 30 days.

incision wounds = assay: Tensile strength of incision wounds; type: in vivo, Sprague-Dawley rats; settings: 0.1% BAC-3, 21 days after wounding, p<0.05 by ANOVA; FIG. 3
Description: Incision wounds. Dorsal midline incisions were made in anesthetized rats. The animals were clipped free of their fur and prepared with alcohol. A 5.0 cm, midline, full-thickness incision was made with a scalpel through the panniclus carnosus.
The wounds were immediately closed with skin sutures spaced at a distance of 0.5 cm. Seven days later, all sutures were removed. On days 14 and 21 after incision, three animals from each group were killed using an overdose of sodium pentobarbital. Using a plexiglass template, a minimum of two samples of full-thickness skin were harvested perpendicular to the long axis of the wound for tensile strength determination. The skin samples were 9.0 mm wide at the wound by 2.0 cm long.
Tensile Strength Determination. The standard wound samples for each treatment cohort were examined for tensile strength by pulling the individual wounds apart in an Instron 4201 (Universal Testing instruments, Instron Engineering Co., Canton, Mass.) material tester. Special clamps were used to securely grip the tissue to avoid slippage as the wounds were pulled at a standard cross speed of 25 mm/min. The tensile strength of healthy skin was measured in killed animals from each group.
Effect of BAC-3 on Tensile Strength of Incision Wounds (FIG. 3) with and without chlorhexidine hydrochloride. The tensile strength of incision wounds was measured 21 days after wounding. […]

Cc1nc2n(c(=O)c1CCN1CCC(c3noc4cc(F)ccc34)CC1)CCCC2 [risperidone]
PCP-induced enhancement of immobility in the forced swimming test (mice; mice): attenuated

[H]/N=C(\N/C(=N/[H])NCCCCCCNC(=N)NC(=N)Nc1ccc(Cl)cc1)Nc1ccc(Cl)cc1 [chlorhexidine hydrochloride, reference compound]
wound irritation (burn wounds [1]; 1% chlorhexidine hydrochloride in combination with BAC-3, rats scratched lower and upper part of burn wounds): irritated wounds

CNCCCN1c2ccccc2CCc2ccccc21 [desipramine]
immobility in the forced swim test (WKY rats [2]): reduces immobility
incidence of stress ulcer (WKY rats [3]): reduces the incidence of stress ulcer

Cc1nc2sccn2c(=O)c1CCN1CCC(=C(c2ccc(F)cc2)c2ccc(F)cc2)CC1 [ritanserin]
PCP-induced enhancement of immobility in the forced swimming test (mice; mice): attenuated

CCCCCCCC(CC(=O)O)OC(=O)CC(CCCCCCC)OC1OC(C)C(O)C(O)C1OC1OC(C)C(O)C(O)C1O [BAC-3, (α-L-rhamnopyranosyl-(1,2)-α-L-rhamnopyranosyl)-3-hyroxydecanoyl-3-hydroxydecanoic acid]
collagen and fibrotic lesions after treatment was finished (venous ulcer): disappeared
treated skin lesions one year after the treatment (venous ulcer; one year after): appear normal
patient's condition (venous ulcer; venous ulcer, left leg): significantly improved
time to whole epithelization in all animals (burn wounds [4]): 30 days
tensile strength of incision wounds vs corresponding vehicle (incision wounds): significantly lower
rate of burn wound closure (decrease in wound size) vs vehicle alone (burn wounds [1]; 0.1% BAC-3 in eucerin, without chlorhexidine, twice daily, days 14-45, FIG. 1): significantly faster
extent of burn wound closure (wound size) vs vehicle alone (burn wounds [1]; 0.1% BAC-3 in eucerin, without chlorhexidine, days 14, 21 and 28, p<0.05 by ANOVA, FIG. 2): significantly smaller
body weights among the treatment groups (burn wounds [1]; 1% and 0.1% BAC-3 in eucerin vs vehicle, twice daily, 45 days): no significant differences
crust formation (burn wounds [1]; between all groups (1% and 0.1% BAC-3, with or without chlorhexidine, placebo), 45 days): no significant differences
granulation tissue (burn wounds [1]; group 1-A: 1% BAC-3 in ointment twice daily): prominently developed
hair growth of dead skin during the healing period (burn wounds [1]; group 1-A: 1% BAC-3 in ointment, compared to the other groups): very prominent
re-epithelization in the middle part of the burn wounds (burn wounds [1]; group 1-B: 0.1% BAC-3 in ointment twice daily): faster
mean value of collagen tissue (burn wounds [1]; group 1 A: 1% BAC-3, without chlorhexidine): 8.48 mm^2
mean value of collagen concentration relative to group 1 D (placebo) (burn wounds [1]; group 1 A: 1% BAC-3): 131.26
mean value of collagen tissue (burn wounds [1]; group 1 B: 0.1% BAC-3, without chlorhexidine): 5.15 mm^2
mean value of collagen concentration relative to group 1 D (placebo) (burn wounds [1]; group 1 B: 0.1% BAC-3): 79.72
granulation tissue (burn wounds [1]; group 2-A: 1% BAC-3 in ointment plus 1% chlorhexidine hydrochloride twice daily): prominently developed
re-epithelization in the middle part of the burn wounds (burn wounds [1]; group 2-B: 0.1% BAC-3 in ointment plus 1% chlorhexidine hydrochloride twice daily): faster

c1ccc(C2(N3CCCCC3)CCCCC2)cc1 [PCP, phencyclidine]
forced swimming-induced immobility (mice; mice treated repeatedly with PCP (10 mg/kg per day S.C.), same stress again): enhanced
persistence of the enhancing effect on immobility after withdrawal of the drug (mice; mice, PCP 10 mg/kg per day S.C.): at least 21 days
